Measured values from patent US20220098203A1 (priority 2018, published 2022).

Target: T1, MAT2A homodimer (Homo sapiens, UniProt P31153)
T1 construct: inferred from the Ni sepharose purification and imidazole elution; made in house; host or cells: SF9 insect cells, recombinant baculovirus (Bac to Bac, pFASTBAC1)
Experiment: MAT2A biochemical assay (liberated phosphate, PiColorLock Gold)
Conditions: Table 5a; MAT2A biochemical assay; read-out: Enzyme Inhibition
Protocol: Mat2A protein was expressed by recombinant baculovirus in SF9 infected cells using the Bac to Bac system cloned into the pFASTBAC1 vector (Invitrogen, Carlsbad, Calif.). Recombinant MAT2A was isolated from the cell lysate of 150 g of infected cells using HP Ni sepharose column chromatography. Recombinant MAT2A homodimer was eluted with 250 and 500 mM imidazole, and fractions containing MAT2A were identified by sodium dodecyl sulfate polyacrylamide gel electrophoresis and pooled.
Test compound was prepared in 100% dimethyl sulfoxide (DMSO) at 50× the desired final concentration. A 1 μL volume of compound dilution was added to 40 μL of enzyme dilution and the mixture was allowed to equilibrate for 60 minutes at 25° C. The enzymatic assay was initiated by the addition of 10 μL of substrate mix (500 μM ATP, pH 7.0, 400 μM L-methionine in 1× assay buffer), and the mixture was incubated for a further 60 minutes at 25° C. The reaction was halted and the liberated phosphate released by the enzyme in stoichiometric amounts by the production of S-adenosyl methionine (SAM) was measured using the PiColorLock Gold kit (Innova Biosciences, UK). Absolute product amounts were determined by comparison to a standard curve of potassium phosphate buffer, pH 8.0.

T1 sequence (P31153 whole entry): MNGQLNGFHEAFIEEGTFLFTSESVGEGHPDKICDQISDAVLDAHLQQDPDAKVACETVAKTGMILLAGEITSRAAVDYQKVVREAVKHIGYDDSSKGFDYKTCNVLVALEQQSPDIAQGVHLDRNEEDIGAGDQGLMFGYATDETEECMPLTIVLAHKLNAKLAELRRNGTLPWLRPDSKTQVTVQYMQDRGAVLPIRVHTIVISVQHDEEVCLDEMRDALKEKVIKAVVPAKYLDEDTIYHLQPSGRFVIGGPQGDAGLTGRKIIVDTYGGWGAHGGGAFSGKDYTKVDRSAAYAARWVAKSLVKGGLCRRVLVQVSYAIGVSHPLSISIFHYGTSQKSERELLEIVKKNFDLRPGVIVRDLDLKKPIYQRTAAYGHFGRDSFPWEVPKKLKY

IC50	Compound
< 0.1 µM	CCOc1ccc2c(n1)N(c1ccc(OC(F)F)cc1)C(=O)N(c1ccnc(OC)c1)C2 [Example 111, 1-(4-(difluoromethoxy)phenyl)-7-ethoxy-3-(2-methoxypyridin-4-yl)-3,4-dihydropyrido[2,3-d]pyrimidin-2(1H)-one]
1 to 10 µM	CCOc1ccc2c(n1)N(c1ccc(OC)cc1)C(=O)N(c1ccc(C#N)cc1)C2 [Example 116, 4-(7-ethoxy-1-(4-methoxyphenyl)-2-oxo-1,2-dihydropyrido[2,3-d]pyrimidin-3(4H)-yl)benzonitrile]
0.1 to 1 µM	CCOc1ccc2c(n1)N(c1ccc(OC)cc1)C(=O)N(c1ccc(F)cc1)C2 [Example 117, 7-ethoxy-3-(4-fluorophenyl)-1-(4-methoxyphenyl)-3,4-dihydropyrido[2,3-d]pyrimidin-2(1H)-one]
1 to 10 µM	CCOc1ccc2c(n1)N(c1ccc(OC)cc1)C(=O)N(c1ccc(NC)cc1)C2 [Example 121, 7-ethoxy-1-(4-methoxyphenyl)-3-(4-(methylamino)phenyl)-3,4-dihydropyrido[2,3-d]pyrimidin-2(1H)-one]
0.1 to 1 µM	CCOc1ccc2c(n1)N(c1ccc(OC)cc1)C(=O)N(c1ccc(C(=O)NC)cc1)C2 [Example 126, 4-(7-ethoxy-1-(4-methoxyphenyl)-2-oxo-1,2-dihydropyrido[2,3-d]pyrimidin-3(4H)-yl)-N-methylbenzamide]

Same assay, conditions: Table 5b; Additional Examples; read-out: Enzyme Inhibition

IC50	Compound
> 10 µM	COc1ccc(-n2c(=O)c3cnc(SC)nc3n(-c3ccc(OCc4ccccc4)cc3)c2=O)cc1
0.1 to 1 µM	COc1ccc(N2Cc3cnc(NCC(F)(F)F)nc3N(c3ccc(C(=O)N(C)C)cc3)C2=O)cc1
0.1 to 1 µM	COc1ccc(N2Cc3cnc(NCC(F)(F)F)nc3N(c3ccc(C(C)(C)CO)cc3)C2=O)cc1
0.1 to 1 µM	COc1ccc(N2C(=O)N(c3ccc4nn(C)cc4c3)Cc3cnc(NC4CCCC4)nc32)cc1
0.1 to 1 µM	COc1ccc(N2Cc3cnc(NCC(F)(F)F)nc3N(c3ccc(CC(C)O)cc3)C2=O)cc1 (centres unmarked)
> 10 µM	CCOc1ccc2c(n1)N(c1ccc(OC)cc1)C(=O)N(c1ccc(Cl)cc1)C2
> 10 µM	COc1ccc(N2Cc3cnc(NCC(F)(F)F)nc3N(c3ccc(C(=O)O)cc3)C2=O)cc1
> 10 µM	COc1ccc(-n2c(=O)c3cnc(NCC(F)(F)F)nc3n(-c3ccc(OCc4ccccc4)cc3)c2=O)cc1
> 10 µM	COc1ccc(N2Cc3cnc(NCC4CC4)nc3N(c3ccccc3)C2=O)cc1
> 10 µM	COc1ccc(N2Cc3cnc(NCC(F)(F)F)nc3N(c3ccc(-c4ccsc4)cc3)C2=O)cc1
> 10 µM	COc1ccc(N2Cc3cnc(NCC(F)(F)F)nc3N(c3cccc(Br)c3)C2=O)cc1
> 10 µM	COc1ccc(N2Cc3cnc(NCC(F)(F)F)nc3N(c3ncc(OC)cn3)C2=O)cc1
> 10 µM	COc1ccc(-n2c(=O)c3cnc(S(C)(=O)=O)nc3n(-c3ccc(OCc4ccccc4)cc3)c2=O)cc1
> 10 µM	COc1ccc(N2Cc3cnc(NCC(F)(F)F)nc3N(c3ccc(Cl)c(C(F)(F)F)c3)C2=O)cc1
> 10 µM	COc1ccc(N2Cc3cnc(NCC(F)(F)F)nc3N(c3ccc(-c4ccccc4)cc3)C2=O)cc1
> 10 µM	COc1ccc(N2C(=O)N(c3ccc4nn(C)cc4c3)Cc3ccc(Nc4ccccc4)nc32)cc1
> 10 µM	COc1ccc(N2Cc3cnc(NCC(F)(F)F)nc3N(c3ccnnc3)C2=O)cc1
> 10 µM	COc1ccc(N2C(=O)N(c3ccc4nn(C)cc4c3)Cc3ccc(N4CCC4)nc32)cc1
> 10 µM	Cn1cc2cc(N3Cc4ccc(OCC(F)F)nc4NC3=O)ccc2n1
> 10 µM	COc1ccc(N2Cc3cnc(SC)nc3N(c3ccc(Cl)c(C(F)(F)F)c3)C2=O)cc1
> 10 µM	COc1ccc(N2Cc3cnc(NCC(F)(F)F)nc3N(C3CCNC(=O)C3)C2=O)cc1 (centres unmarked)
> 10 µM	COc1ccc(N2Cc3cnc(SC)nc3N(c3cccc(Br)c3)C2=O)cc1
> 10 µM	COc1ccc(N2Cc3cnc(NCC(F)(F)F)nc3N(S(C)(=O)=O)C2=O)cc1
> 10 µM	COc1ccc(N2Cc3cnc(-n4ccnc4)nc3N(c3ccc(O)cc3)C2=O)cc1
